Reference: ChEMBL document CHEMBL3991601, “The target landscape of clinical kinase drugs” (Science, 2017)
Activity calls are given as the source filed them.

What was measured:
[1] = target: Serine/threonine-protein kinase PLK1 (Homo sapiens, UniProt P53350)
[2] = target: T1, Isoleucine--tRNA ligase, mitochondrial (Homo sapiens, UniProt Q9NSE4)
T1 sequence (Q9NSE4 whole entry): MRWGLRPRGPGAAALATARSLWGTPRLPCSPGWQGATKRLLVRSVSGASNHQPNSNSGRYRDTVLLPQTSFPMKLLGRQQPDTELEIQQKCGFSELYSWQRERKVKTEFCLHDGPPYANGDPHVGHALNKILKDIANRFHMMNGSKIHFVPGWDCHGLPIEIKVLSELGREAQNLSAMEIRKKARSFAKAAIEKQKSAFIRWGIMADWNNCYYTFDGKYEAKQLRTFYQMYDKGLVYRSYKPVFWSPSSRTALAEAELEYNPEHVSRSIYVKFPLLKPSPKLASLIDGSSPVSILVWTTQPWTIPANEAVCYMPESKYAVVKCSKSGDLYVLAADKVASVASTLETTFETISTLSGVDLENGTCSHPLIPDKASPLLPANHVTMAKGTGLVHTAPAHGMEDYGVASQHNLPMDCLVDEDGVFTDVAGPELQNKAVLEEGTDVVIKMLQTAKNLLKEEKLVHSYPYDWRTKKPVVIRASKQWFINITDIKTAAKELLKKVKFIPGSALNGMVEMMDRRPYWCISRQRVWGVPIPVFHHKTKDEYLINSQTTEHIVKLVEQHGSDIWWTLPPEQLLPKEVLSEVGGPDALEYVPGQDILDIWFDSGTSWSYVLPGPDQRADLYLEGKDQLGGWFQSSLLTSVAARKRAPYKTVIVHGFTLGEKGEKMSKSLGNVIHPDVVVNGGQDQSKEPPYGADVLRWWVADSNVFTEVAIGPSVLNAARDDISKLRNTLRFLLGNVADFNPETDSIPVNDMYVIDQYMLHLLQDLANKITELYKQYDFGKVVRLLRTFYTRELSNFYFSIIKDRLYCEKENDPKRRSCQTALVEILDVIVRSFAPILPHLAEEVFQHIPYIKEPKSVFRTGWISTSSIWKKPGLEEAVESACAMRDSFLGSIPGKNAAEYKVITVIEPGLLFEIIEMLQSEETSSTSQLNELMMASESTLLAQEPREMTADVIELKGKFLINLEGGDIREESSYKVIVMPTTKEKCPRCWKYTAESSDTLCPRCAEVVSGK

[3] = target: T2, Phosphatidylinositol 5-phosphate 4-kinase type-2 alpha (Homo sapiens, UniProt P48426)
T2 sequence (P48426 whole entry): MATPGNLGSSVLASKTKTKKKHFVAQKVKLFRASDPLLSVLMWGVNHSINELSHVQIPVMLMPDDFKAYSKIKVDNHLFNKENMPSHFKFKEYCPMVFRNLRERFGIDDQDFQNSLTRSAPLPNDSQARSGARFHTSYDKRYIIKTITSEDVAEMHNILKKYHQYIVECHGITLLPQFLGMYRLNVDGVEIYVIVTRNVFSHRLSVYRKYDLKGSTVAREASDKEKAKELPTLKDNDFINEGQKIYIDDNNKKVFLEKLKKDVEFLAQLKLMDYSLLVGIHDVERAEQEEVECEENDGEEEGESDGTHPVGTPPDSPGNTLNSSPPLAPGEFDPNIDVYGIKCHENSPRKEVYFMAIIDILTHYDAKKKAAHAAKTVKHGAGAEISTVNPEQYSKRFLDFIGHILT

[4] = target: Serine/threonine-protein kinase MRCK gamma (Homo sapiens, UniProt Q6DT37)
[5] = target: Phosphatidylethanolamine-binding protein 1 (Homo sapiens, UniProt P30086)
[6] = target: Epidermal growth factor receptor (Homo sapiens, UniProt P00533)
[7] = target: Dual specificity protein kinase CLK2 (Homo sapiens, UniProt P49760)
[8] = target: Proto-oncogene tyrosine-protein kinase receptor Ret (Homo sapiens, UniProt P07949)
[9] = target: T3, Thyroid hormone receptor-associated protein 3 (Homo sapiens, UniProt Q9Y2W1)
T3 sequence (Q9Y2W1 whole entry): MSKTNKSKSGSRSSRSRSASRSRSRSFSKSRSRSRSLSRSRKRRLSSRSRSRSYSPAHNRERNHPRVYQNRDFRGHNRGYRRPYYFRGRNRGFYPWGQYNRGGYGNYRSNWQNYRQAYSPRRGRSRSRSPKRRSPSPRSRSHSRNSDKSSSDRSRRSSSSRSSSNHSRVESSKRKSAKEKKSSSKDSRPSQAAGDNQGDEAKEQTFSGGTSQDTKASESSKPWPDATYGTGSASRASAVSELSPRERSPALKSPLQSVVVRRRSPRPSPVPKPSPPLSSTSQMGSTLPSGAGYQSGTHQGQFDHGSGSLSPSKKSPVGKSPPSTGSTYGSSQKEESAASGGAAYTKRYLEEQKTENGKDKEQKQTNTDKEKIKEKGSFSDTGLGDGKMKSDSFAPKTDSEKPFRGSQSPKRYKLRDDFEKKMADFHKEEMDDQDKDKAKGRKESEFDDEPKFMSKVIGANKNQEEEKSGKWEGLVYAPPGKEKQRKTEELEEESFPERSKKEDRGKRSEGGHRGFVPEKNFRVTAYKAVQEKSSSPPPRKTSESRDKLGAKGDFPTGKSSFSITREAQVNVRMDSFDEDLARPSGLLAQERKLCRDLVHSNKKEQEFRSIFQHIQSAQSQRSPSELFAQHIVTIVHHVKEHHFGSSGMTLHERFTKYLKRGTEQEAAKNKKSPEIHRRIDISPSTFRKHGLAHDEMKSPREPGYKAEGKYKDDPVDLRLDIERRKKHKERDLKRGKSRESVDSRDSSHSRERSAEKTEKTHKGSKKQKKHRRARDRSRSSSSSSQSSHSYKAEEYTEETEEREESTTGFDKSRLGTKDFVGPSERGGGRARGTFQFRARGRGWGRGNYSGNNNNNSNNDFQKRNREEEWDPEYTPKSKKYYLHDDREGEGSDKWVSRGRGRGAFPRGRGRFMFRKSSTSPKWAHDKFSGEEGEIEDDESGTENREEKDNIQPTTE

[10] = target: Protein kinase C theta type (Homo sapiens, UniProt Q04759)
Note: in the data inactive means no Kd found up to 30 µM.

Protein kinase C theta type, sequence (Q04759 whole entry): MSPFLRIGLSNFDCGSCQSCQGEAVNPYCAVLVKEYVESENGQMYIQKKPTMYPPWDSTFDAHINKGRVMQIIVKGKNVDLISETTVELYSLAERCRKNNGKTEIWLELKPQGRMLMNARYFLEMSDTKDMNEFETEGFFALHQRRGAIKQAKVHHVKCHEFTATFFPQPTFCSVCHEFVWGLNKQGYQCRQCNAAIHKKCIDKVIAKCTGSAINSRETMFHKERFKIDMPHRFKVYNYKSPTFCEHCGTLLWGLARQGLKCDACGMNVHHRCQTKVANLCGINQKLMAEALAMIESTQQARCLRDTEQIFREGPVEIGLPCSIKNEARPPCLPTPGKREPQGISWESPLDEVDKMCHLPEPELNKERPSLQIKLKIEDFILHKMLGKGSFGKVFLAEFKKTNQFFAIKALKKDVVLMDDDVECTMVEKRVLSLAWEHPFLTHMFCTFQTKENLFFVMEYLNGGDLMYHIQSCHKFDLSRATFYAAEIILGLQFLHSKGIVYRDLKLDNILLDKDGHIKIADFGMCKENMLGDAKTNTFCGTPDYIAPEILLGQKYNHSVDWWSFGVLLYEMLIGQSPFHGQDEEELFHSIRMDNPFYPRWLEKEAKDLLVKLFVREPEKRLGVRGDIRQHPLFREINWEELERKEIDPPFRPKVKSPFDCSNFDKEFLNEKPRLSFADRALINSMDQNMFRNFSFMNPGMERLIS
Phosphatidylethanolamine-binding protein 1, sequence (P30086 whole entry): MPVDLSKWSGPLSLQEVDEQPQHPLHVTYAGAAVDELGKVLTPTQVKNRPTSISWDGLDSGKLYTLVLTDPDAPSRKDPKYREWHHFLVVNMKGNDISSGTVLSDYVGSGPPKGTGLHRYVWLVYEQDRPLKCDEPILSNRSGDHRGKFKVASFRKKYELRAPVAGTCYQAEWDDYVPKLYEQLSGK
Serine/threonine-protein kinase MRCK gamma, sequence (Q6DT37 whole entry): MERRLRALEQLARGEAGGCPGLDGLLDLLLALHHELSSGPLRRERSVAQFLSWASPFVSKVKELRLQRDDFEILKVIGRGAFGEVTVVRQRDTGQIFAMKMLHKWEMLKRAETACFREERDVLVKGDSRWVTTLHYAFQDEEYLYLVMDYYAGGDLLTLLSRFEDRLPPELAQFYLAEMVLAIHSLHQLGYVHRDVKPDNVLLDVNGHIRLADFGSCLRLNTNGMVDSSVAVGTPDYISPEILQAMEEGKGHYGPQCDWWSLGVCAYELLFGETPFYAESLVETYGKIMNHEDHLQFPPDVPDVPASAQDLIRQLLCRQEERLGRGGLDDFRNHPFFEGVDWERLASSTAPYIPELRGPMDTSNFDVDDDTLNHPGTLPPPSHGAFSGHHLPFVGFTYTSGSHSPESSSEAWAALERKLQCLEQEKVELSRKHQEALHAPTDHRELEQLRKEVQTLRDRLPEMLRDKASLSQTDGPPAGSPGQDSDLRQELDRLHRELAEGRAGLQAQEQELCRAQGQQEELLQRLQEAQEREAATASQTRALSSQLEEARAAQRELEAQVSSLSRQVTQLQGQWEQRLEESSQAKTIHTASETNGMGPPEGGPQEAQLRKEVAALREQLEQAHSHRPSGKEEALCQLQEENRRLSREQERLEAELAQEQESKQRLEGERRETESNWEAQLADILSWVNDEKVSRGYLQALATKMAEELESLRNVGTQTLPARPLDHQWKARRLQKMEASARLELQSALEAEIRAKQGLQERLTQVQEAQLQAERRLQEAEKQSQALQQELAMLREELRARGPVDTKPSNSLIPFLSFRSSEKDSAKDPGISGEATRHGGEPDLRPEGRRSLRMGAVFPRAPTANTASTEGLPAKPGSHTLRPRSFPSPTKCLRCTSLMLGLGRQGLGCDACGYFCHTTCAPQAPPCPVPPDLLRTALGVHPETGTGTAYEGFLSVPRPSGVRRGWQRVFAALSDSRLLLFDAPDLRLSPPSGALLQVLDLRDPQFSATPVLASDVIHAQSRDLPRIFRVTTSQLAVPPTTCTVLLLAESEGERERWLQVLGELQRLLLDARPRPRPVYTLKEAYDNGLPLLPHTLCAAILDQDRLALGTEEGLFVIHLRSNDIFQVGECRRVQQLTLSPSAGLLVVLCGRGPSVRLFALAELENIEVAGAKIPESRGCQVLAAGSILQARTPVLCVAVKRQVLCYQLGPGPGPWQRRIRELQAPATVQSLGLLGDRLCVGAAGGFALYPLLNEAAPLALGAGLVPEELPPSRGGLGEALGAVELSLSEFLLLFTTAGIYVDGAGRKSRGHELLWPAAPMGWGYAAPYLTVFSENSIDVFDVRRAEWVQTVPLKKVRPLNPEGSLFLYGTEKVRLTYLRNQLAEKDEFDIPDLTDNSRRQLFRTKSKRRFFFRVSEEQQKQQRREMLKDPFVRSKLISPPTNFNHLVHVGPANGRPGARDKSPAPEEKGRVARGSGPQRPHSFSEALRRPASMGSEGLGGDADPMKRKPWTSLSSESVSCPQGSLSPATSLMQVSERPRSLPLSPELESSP
Dual specificity protein kinase CLK2, sequence (P49760 whole entry): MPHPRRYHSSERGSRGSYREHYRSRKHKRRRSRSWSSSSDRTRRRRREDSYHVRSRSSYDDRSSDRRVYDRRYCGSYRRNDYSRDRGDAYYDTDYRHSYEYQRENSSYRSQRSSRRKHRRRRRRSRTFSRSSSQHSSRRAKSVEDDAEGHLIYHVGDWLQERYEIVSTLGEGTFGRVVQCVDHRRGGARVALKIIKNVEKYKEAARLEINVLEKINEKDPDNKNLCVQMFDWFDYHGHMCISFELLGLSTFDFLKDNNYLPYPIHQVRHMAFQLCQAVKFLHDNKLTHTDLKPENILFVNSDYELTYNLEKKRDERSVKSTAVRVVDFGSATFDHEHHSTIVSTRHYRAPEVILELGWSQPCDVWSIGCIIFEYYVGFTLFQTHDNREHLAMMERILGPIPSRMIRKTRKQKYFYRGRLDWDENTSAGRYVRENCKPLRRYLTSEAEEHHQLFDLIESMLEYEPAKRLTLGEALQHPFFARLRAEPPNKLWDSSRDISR
Proto-oncogene tyrosine-protein kinase receptor Ret, sequence (P07949 whole entry): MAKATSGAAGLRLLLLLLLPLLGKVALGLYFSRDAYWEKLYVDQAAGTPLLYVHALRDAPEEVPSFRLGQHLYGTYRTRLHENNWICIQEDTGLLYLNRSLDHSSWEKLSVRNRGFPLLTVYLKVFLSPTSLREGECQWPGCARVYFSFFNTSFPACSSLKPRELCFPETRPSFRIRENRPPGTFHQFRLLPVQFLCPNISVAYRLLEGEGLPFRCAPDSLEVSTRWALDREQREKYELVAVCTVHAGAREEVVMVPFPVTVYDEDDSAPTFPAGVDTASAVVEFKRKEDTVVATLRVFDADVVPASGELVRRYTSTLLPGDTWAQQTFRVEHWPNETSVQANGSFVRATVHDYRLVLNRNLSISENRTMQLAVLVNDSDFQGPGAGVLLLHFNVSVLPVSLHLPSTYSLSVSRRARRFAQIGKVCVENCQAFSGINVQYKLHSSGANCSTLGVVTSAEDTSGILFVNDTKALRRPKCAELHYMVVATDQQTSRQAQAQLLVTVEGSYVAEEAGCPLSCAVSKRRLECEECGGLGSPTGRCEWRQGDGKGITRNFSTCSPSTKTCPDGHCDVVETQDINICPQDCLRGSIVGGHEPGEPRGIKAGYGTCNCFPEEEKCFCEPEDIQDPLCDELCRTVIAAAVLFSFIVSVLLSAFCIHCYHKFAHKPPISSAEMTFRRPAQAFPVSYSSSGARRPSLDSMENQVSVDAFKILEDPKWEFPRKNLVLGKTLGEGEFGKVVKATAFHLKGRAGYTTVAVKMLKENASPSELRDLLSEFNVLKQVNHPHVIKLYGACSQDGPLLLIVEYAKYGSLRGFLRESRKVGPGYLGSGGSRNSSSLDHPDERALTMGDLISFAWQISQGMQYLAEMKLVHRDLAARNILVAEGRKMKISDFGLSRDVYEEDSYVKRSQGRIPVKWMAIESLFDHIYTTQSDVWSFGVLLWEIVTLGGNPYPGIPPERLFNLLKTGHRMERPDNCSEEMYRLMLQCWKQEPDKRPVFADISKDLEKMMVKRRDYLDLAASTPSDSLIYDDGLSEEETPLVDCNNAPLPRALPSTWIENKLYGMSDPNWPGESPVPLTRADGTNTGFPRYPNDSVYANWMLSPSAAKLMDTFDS
Serine/threonine-protein kinase PLK1, sequence (P53350 whole entry): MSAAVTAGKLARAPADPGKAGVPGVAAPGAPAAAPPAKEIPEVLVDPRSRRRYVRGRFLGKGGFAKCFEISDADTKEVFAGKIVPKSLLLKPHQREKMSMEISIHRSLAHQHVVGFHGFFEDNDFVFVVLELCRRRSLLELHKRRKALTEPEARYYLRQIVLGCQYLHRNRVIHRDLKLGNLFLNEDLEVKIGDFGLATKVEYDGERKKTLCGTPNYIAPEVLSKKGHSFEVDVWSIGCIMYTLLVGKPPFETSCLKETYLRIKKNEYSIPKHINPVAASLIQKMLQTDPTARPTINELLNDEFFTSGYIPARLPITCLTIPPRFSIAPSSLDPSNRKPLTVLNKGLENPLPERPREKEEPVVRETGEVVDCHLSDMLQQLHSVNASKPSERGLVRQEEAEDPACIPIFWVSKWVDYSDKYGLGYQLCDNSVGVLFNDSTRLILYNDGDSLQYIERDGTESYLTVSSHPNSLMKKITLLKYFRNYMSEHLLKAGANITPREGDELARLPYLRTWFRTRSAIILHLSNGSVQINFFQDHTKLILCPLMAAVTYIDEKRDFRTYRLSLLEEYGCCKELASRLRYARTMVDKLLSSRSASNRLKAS

Structure (SMILES) | Kd [1] | Kd [2] | Kd [3] | Kd [4] | Kd [5] | Kd [6] | Kd [7] | Kd [8] | Kd [9] | Kd [10]
N[C@@H]1CCCN(c2c(/C=C3\SC(=O)NC3=O)cccc2-c2ccccc2)C1 | > 30 µM (inactive) | > 30 µM (inactive) | > 30 µM (inactive) | > 30 µM (inactive) | > 30 µM (inactive) | > 30 µM (inactive) | > 30 µM (inactive) | > 30 µM (inactive) | – | –
Cc1ccc(S(=O)(=O)Nc2nc3ccccc3nc2Nc2ccc3nsnc3c2)cc1 | > 30 µM (inactive) | > 30 µM (inactive) | > 30 µM (inactive) | – | – | > 30 µM (inactive) | > 30 µM (inactive) | > 30 µM (inactive) | > 30 µM (inactive) | > 30 µM (inactive)
CN1CC[C@@H](c2c(O)cc(O)c3c(=O)cc(-c4ccccc4Cl)oc23)[C@@H]1CO | 0.021 µM | > 30 µM (inactive) | – | – | > 30 µM (inactive) | > 30 µM (inactive) | > 30 µM (inactive) | > 30 µM (inactive) | > 30 µM (inactive) | > 30 µM (inactive)
CO[C@H]1C[C@@H]2CC[C@@H](C)[C@@](O)(O2)C(=O)C(=O)N2CCCC[C@H]2C(=O)O[C@H]([C@H](C)C[C@@H]2CC[C@@H](OCCO)[C@H](OC)C2)CC(=O)[C@H](C)/C=C(\C)[C@@H](O)[C@@H](OC)C(=O)[C@H](C)C[C@H](C)/C=C/C=C/C=C/1C [EVEROLIMUS] | > 30 µM (inactive) | – | > 30 µM (inactive) | > 30 µM (inactive) | > 30 µM (inactive) | > 30 µM (inactive) | > 30 µM (inactive) | > 30 µM (inactive) | > 30 µM (inactive) | > 30 µM (inactive)
COCCNCc1ccc(-c2cc3nccc(Oc4ccc(NC(=S)NC(=O)Cc5ccc(F)cc5)cc4F)c3s2)nc1 [GLESATINIB] | > 30 µM (inactive) | > 30 µM (inactive) | > 30 µM (inactive) | > 30 µM (inactive) | > 30 µM (inactive) | > 30 µM (inactive) | > 30 µM (inactive) | > 30 µM (inactive) | > 30 µM (inactive) | > 30 µM (inactive)
O=C1NC(=O)/C(=C/c2ccc3nccc(-c4ccncc4)c3c2)S1 [GSK-1059615] | > 30 µM (inactive) | > 30 µM (inactive) | > 30 µM (inactive) | > 30 µM (inactive) | – | > 30 µM (inactive) | 0.0004 µM (active) | > 30 µM (inactive) | > 30 µM (inactive) | > 30 µM (inactive)
CC[C@H](Nc1ncnc2[nH]cnc12)c1nc2cccc(F)c2c(=O)n1-c1ccccc1 [IDELALISIB] | > 30 µM (inactive) | – | > 30 µM (inactive) | > 30 µM (inactive) | > 30 µM (inactive) | > 30 µM (inactive) | > 30 µM (inactive) | > 30 µM (inactive) | > 30 µM (inactive) | > 30 µM (inactive)
Cn1cc(-c2ccc3nnc(C(F)(F)c4ccc5ncccc5c4)n3n2)cn1 [JNJ-38877605] | > 30 µM (inactive) | – | > 30 µM (inactive) | > 30 µM (inactive) | > 30 µM (inactive) | > 30 µM (inactive) | > 30 µM (inactive) | > 30 µM (inactive) | > 30 µM (inactive) | > 30 µM (inactive)
Cc1ccc(-n2nc(C(C)(C)C)cc2NC(=O)NCc2cc(F)ccc2Oc2ccc3c(cnn3CCO)c2)cc1 [PEXMETINIB] | > 30 µM (inactive) | > 30 µM (inactive) | > 30 µM (inactive) | > 30 µM (inactive) | > 30 µM (inactive) | > 30 µM (inactive) | > 30 µM (inactive) | 1.2 µM (active) | – | > 30 µM (inactive)
OCCn1cc(-c2cnc3nnn(Cc4ccc5ncccc5c4)c3n2)cn1 [PF-04217903] | > 30 µM (inactive) | > 30 µM (inactive) | > 30 µM (inactive) | > 30 µM (inactive) | > 30 µM (inactive) | > 30 µM (inactive) | – | – | > 30 µM (inactive) | –
CNC(=O)c1cc(Oc2ccc(NC(=O)Nc3ccc(Cl)c(C(F)(F)F)c3)c(F)c2)ccn1 [REGORAFENIB] | > 30 µM (inactive) | > 30 µM (inactive) | > 30 µM (inactive) | > 30 µM (inactive) | > 30 µM (inactive) | > 30 µM (inactive) | > 30 µM (inactive) | – | – | > 30 µM (inactive)
CN1CCC(CNc2ccc3ncc(-c4cccc(OC(F)(F)F)c4)n3n2)CC1 [SGI-1776] | > 30 µM (inactive) | > 30 µM (inactive) | > 30 µM (inactive) | > 30 µM (inactive) | – | > 30 µM (inactive) | > 30 µM (inactive) | 3.22 µM (active) | > 30 µM (inactive) | > 30 µM (inactive)
CN1CCC(COc2cnc(-c3cccc(Cn4nc(-c5cccc(C#N)c5)ccc4=O)c3)nc2)CC1 [TEPOTINIB] | > 30 µM (inactive) | > 30 µM (inactive) | > 30 µM (inactive) | > 30 µM (inactive) | > 30 µM (inactive) | – | – | > 30 µM (inactive) | > 30 µM (inactive) | > 30 µM (inactive)
COc1cc2nccc(Oc3ccc(NC(=O)Nc4cc(C)on4)c(Cl)c3)c2cc1OC [TIVOZANIB] | > 30 µM (inactive) | > 30 µM (inactive) | > 30 µM (inactive) | > 30 µM (inactive) | 0.003 µM | – | > 30 µM (inactive) | – | > 30 µM (inactive) | > 30 µM (inactive)
CC(C)Nc1cc(-c2c[nH]c(C(=O)N[C@H](CO)c3cccc(Cl)c3)c2)c(Cl)cn1 [ULIXERTINIB] | > 30 µM (inactive) | > 30 µM (inactive) | > 30 µM (inactive) | > 30 µM (inactive) | – | > 30 µM (inactive) | – | > 30 µM (inactive) | – | > 30 µM (inactive)
CCn1c(=O)c(-c2cc[nH]n2)cc2c(C)nc(N)nc21 [VOXTALISIB] | > 30 µM (inactive) | > 30 µM (inactive) | > 30 µM (inactive) | > 30 µM (inactive) | > 30 µM (inactive) | > 30 µM (inactive) | – | > 30 µM (inactive) | > 30 µM (inactive) | > 30 µM (inactive)
